Target: T1, Human Recombinant Matriptase 2 (Homo sapiens, UniProt Q8IU80)
T1 construct: made in house
T1 sequence (Q8IU80 1-811): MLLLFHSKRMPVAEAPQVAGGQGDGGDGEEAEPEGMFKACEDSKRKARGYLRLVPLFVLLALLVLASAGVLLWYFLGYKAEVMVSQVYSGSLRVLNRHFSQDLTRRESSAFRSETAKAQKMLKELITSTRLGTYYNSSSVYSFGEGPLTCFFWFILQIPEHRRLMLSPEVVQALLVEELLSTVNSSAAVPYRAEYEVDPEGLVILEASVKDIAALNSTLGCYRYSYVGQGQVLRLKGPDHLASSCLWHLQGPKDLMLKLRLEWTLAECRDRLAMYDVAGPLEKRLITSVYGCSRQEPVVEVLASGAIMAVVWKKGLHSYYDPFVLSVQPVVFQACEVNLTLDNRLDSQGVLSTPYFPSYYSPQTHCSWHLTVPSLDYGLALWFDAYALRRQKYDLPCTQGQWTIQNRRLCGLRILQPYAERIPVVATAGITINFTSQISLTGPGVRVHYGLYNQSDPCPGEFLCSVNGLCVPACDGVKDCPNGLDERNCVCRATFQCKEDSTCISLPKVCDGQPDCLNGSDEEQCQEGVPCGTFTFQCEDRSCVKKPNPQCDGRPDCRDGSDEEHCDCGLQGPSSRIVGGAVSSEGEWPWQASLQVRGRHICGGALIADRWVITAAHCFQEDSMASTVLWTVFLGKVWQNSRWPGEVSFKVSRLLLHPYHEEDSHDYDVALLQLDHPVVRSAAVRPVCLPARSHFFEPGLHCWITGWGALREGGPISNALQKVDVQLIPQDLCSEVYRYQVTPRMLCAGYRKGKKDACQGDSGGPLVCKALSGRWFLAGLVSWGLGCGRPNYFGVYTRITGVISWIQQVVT
Assay: Matriptase 2 inhibition, fluorescence based assay (Method I)
Assay type: biochemical
Settings: Table A; Ki of Matriptase-2; read-out: Mat-2 Ki
Procedure, shortened: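 In-house recombinant enzyme (3.5 nM), preincubated 30 min with compound, then Boc-Gln-Ala-Arg-AMC substrate (62 μM) in 50 mM Tris pH 7.5, 150 mM NaCl, 0.01% gelatin, 1% DMSO, 25 °C. Fluorescence (Ex 360/Em 480 nm) read 60 min after substrate; IC50 from variable-slope sigmoidal fit of % inhibition.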

`NCc1ccc2cc(C(=O)OC[C@H]3CNCCO3)n(Cc3cc(NS(=O)(=O)Cc4ccsc4)cc4ccccc34)c2n1` [Compound 170, [(2R)-morpholin-2-yl]-methyl 6-(aminomethyl)-1-({3-[(thiophen-3-yl)-methanesulfonamido]-naphthalen-1-yl}meth-yl)-1H-pyrrolo[2,3-b]-pyridine-2-carboxylate] and `NCc1ccc2cc(C(=O)OCC3CCOCC3)n(Cc3cc(NS(=O)(=O)Cc4ccsc4)cc4ccccc34)c2n1` [Compound 176, (oxan-4-yl)methyl 6-(aminomethyl)-1-({3-[(thiophen-3-yl)methane-sulfonamido]naphthalen-1-yl}methyl)-1H-pyr-rolo[2,3-b]pyridine-2-carboxylate] cannot be ordered by Ki: at most 100 nM for the first, at most 100 nM for the second.

`CC(=O)N(C)CCOC(=O)c1cc2ccc(CN)nc2n1Cc1cc(NS(=O)(=O)Cc2ccsc2)cc2ccccc12` [Compound 171, 2-(N-methylacetamido)-ethyl 6-(aminomethyl)-1-({3-[(thiophen-3-yl)-methanesulfonamido]-naphthalen-1-yl}meth-yl)-1H-pyrrolo[2,3-b]-pyridine-2-carboxylate] and `CNCCOC(=O)c1cc2ccc(CN)nc2n1Cc1cc(NS(=O)(=O)Cc2ccsc2)cc2ccccc12` [Compound 175, 2-(methylamino)ethyl 6-(aminomethyl)-1-({3-[(thiophen-3-yl)methane-sulfonamido]naphthalen-1-yl}methyl)-1H-pyr-rolo[2,3-b]pyridine-2-carboxylate] cannot be ordered by Ki: at most 100 nM for the first, at most 100 nM for the second.

`NCc1ccc2cc(C(=O)NCCN3CCOCC3)n(Cc3cc(NS(=O)(=O)Cc4ccsc4)cc4ccccc34)c2n1` [Compound 173, 6-(aminomethyl)-N-[2-(morpholin-4-yl)ethyl]-1-({3-[(thiophen-3-yl)-methanesulfonamido]-naphthalen-1-yl}meth-yl)-1H-pyrrolo[2,3-b]-pyridine-2-carboxamide] and `NCc1ccc2cc(C(=O)OCCN3CCCC3)n(Cc3cc(NS(=O)(=O)Cc4ccsc4)cc4ccccc34)c2n1` [Compound 177, 2-(pyrrolidin-1-yl)ethyl 6-(aminomethyl)-1-({3-[(thiophen-3-yl)methane-sulfonamido]naphthalen-1-yl}methyl)-1H-pyr-rolo[2,3-b]pyridine-2-carboxylate] cannot be ordered by Ki: at most 100 nM for the first, at most 100 nM for the second.

`CN1CCC(CCOC(=O)c2cc3ccc(CN)nc3n2Cc2cc(NS(=O)(=O)Cc3ccsc3)cc3ccccc23)CC1` [Compound 174] and `NCc1ccc2cc(C(=O)OCCC3CCOCC3)n(Cc3cc(NS(=O)(=O)Cc4ccsc4)cc4ccccc34)c2n1` [Compound 179, 2-(oxan-4-yl)ethyl 6-(aminomethyl)-1-({3-[(thiophen-3-yl)methane-sulfonamido]naphthalen-1-yl}methyl)-1H-pyr-rolo[2,3-b]pyridine-2-carboxylate] cannot be ordered by Ki: at most 100 nM for the first, 100 to 500 nM for the second.

`Cc1oc(=O)oc1COC(=O)c1cc2ccc(CN)nc2n1Cc1cc(NS(=O)(=O)Cc2ccsc2)cc2ccccc12` [Compound 178, (5-methyl-2-oxo-2H-1,3-dioxol-4-yl)methyl 6-(aminomethyl)-1-({3-[(thiophen-3-yl)methane-sulfonamido]naphthalen-1-yl}methyl)-1H-pyr-rolo[2,3-b]pyridine-2-carboxylate] and `CN(Cc1nccn1C)C(=O)c1cc2ccc(CN)nc2n1Cc1cc(NS(=O)(=O)Cc2ccsc2)cc2ccccc12` [Compound 181, 6-(aminomethyl)-N-methyl-N-[(1-methyl-1H-imidazol-2-yl)meth-yl]-1-({3-{(thiophen-3-yl)methanesulfonamido]-naphthalen-1-yl}methyl)-1H-pyrrolo[2,3-b]pyr-idine-2-carboxamide] fall in the same range of Ki: 100 to 500 nM for the first, 100 to 500 nM for the second.

With `COc1ccccc1CS(=O)(=O)Nc1cc(Cn2c(C(=O)O)cc3ccc(CN)nc32)c2ccccc2c1` [Compound 180, 6-(aminomethyl)-1-({3-[(2-methoxyphenyl)-methanesulfonamido]-naphthalen-1-yl}meth-yl)-1H-pyrrolo[2,3-b]-pyridine-2-carboxylic acid] the Ki was 100 to 500 nM.
